The supplement of paper PMC9663587

Tests used:
Flavopiridol [1] = compound: T1, CN1CC[C@H](c2c(O)cc(O)c3c(=O)cc(-c4ccccc4Cl)oc23)[C@H](O)C1 [Flavopiridol]; experiment: GR value, 72 h; higher = faster growth (1 = untreated, <0 = killing);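 also: breast cancer and non-malignant breast epithelial lines, nine half-log doses, viable cells counted by Hoechst and LIVE/DEAD dye imaging versus time-zero plates and DMSO controls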
Neratinib/HKI272 [2] = compound: T2, CCOc1cc2ncc(C#N)c(Nc3ccc(OCc4ccccn4)c(Cl)c3)c2cc1NC(=O)/C=C/CN(C)C [Neratinib/HKI272]; experiment: as above
[3] = compound: CCc1cnn2c(NCc3ccc[n+]([O-])c3)cc(N3CCCC[C@H]3CCO)nc12; experiment: increase in dead-cell fraction, 72 h; higher = more death;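 also: breast cancer cell lines in 384-well plates, stained with Hoechst plus LIVE/DEAD far red dye and imaged, cells above an LDR intensity threshold counted dead, Hoechst-negative corpses included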
[4] = compound: CC(=O)c1c(C)c2cnc(Nc3ccc(N4CCNCC4)cn3)nc2n(C2CCCC2)c1=O; experiment: as above
[5] = compound: CCN1CCN(Cc2ccc(Nc3ncc(F)c(-c4cc(F)c5nc(C)n(C(C)C)c5c4)n3)nc2)CC1; experiment: as above
Flavopiridol [6] = compound: T1, Flavopiridol; experiment: as above
YKL-5-124 = compound: C=CC(=O)Nc1ccc(C(=O)Nc2[nH]nc3c2CN(C(=O)N[C@H](CN(C)C)c2ccccc2)C3(C)C)cc1 [YKL-5-124]; experiment: as above
LEE011/Ribociclib = compound: CN(C)C(=O)c1cc2cnc(Nc3ccc(N4CCNCC4)cn3)nc2n1C1CCCC1 [LEE011/Ribociclib]; experiment: as above
Neratinib/HKI272 [7] = compound: T2, Neratinib/HKI272; experiment: as above
THZ531 = compound: CN(C)C/C=C/C(=O)Nc1ccc(C(=O)N2CCC[C@@H](Nc3ncc(Cl)c(-c4c[nH]c5ccccc45)n3)C2)cc1 [THZ531]; experiment: as above
THZ1 = compound: CN(C)C/C=C/C(=O)Nc1ccc(C(=O)Nc2cccc(Nc3ncc(Cl)c(-c4c[nH]c5ccccc45)n3)c2)cc1 [THZ1]; experiment: as above
BSJ-03-123 = compound: CC(=O)c1c(C)c2cnc(Nc3ccc(N4CCN(CCOCCOCCOCCNC(=O)COc5cccc6c5C(=O)N(C5CCC(=O)NC5=O)C6=O)CC4)cn3)nc2n(C2CCCC2)c1=O [BSJ-03-123]; experiment: as above

## BT474
Flavopiridol [1]; 0.0001 µM
  GR value: 1.17 GR
Flavopiridol [1]; 0.0003162 µM
  GR value: 0.998 GR
Flavopiridol [1]; 0.001 µM
  GR value: 0.895 GR
Flavopiridol [1]; 0.003162 µM
  GR value: 0.878 GR
Flavopiridol [1]; 0.01 µM
  GR value: 0.801 GR
Flavopiridol [1]; 0.03162 µM
  GR value: 0.959 GR
Flavopiridol [1]; 0.1 µM
  GR value: 0.935 GR
Flavopiridol [1]; 0.3162 µM
  GR value: 0.154 GR
Flavopiridol [1]; 1 µM
  GR value: -0.753 GR
Neratinib/HKI272 [2]; 0.0003162 µM
  GR value: 0.989 GR
Neratinib/HKI272 [2]; 0.001 µM
  GR value: 0.784 GR
Neratinib/HKI272 [2]; 0.003162 µM
  GR value: -0.125 GR
Neratinib/HKI272 [2]; 0.01 µM
  GR value: -0.734 GR
Neratinib/HKI272 [2]; 0.03162 µM
  GR value: -0.825 GR
Neratinib/HKI272 [2]; 0.1 µM
  GR value: -0.86 GR
Neratinib/HKI272 [2]; 0.3162 µM
  GR value: -0.874 GR
Neratinib/HKI272 [2]; 1 µM
  GR value: -0.895 GR
Neratinib/HKI272 [2]; 3.162 µM
  GR value: -0.922 GR
[3]; 0.0001 µM
  increase in dead-cell fraction: -0.0025
[3]; 0.0003162 µM
  increase in dead-cell fraction: -0.0015
[3]; 0.001 µM
  increase in dead-cell fraction: -0.0013
[3]; 0.003162 µM
  increase in dead-cell fraction: -0.002
[3]; 0.01 µM
  increase in dead-cell fraction: 0.0053
[3]; 0.03162 µM
  increase in dead-cell fraction: 0.207
[3]; 0.1 µM
  increase in dead-cell fraction: 0.246
[3]; 0.3162 µM
  increase in dead-cell fraction: 0.265
[3]; 1 µM
  increase in dead-cell fraction: 0.249
[4]; 0.0003162 µM
  increase in dead-cell fraction: -0.0048
[4]; 0.001 µM
  increase in dead-cell fraction: -0.0003
[4]; 0.003162 µM
  increase in dead-cell fraction: -0.0027
[4]; 0.01 µM
  increase in dead-cell fraction: 0.0006
[4]; 0.03162 µM
  increase in dead-cell fraction: 0.0074
[4]; 0.1 µM
  increase in dead-cell fraction: 0.0103
[4]; 0.3162 µM
  increase in dead-cell fraction: 0.0169
[4]; 1 µM
  increase in dead-cell fraction: 0.0196
[4]; 3.162 µM
  increase in dead-cell fraction: 0.0256
[5]; 0.001 µM
  increase in dead-cell fraction: -0.005
[5]; 0.003162 µM
  increase in dead-cell fraction: -0.0017
[5]; 0.01 µM
  increase in dead-cell fraction: 0.0057
[5]; 0.03162 µM
  increase in dead-cell fraction: 0.0071
[5]; 0.1 µM
  increase in dead-cell fraction: 0.0213
[5]; 0.3162 µM
  increase in dead-cell fraction: 0.01
[5]; 1 µM
  increase in dead-cell fraction: 0.0104
[5]; 3.162 µM
  increase in dead-cell fraction: 0.0016
[5]; 10 µM
  increase in dead-cell fraction: 0.0194
Flavopiridol [6]; 0.0001 µM
  increase in dead-cell fraction: 0.0042
Flavopiridol [6]; 0.0003162 µM
  increase in dead-cell fraction: 0.0024
Flavopiridol [6]; 0.001 µM
  increase in dead-cell fraction: -0.0008
Flavopiridol [6]; 0.003162 µM
  increase in dead-cell fraction: 0.0046
Flavopiridol [6]; 0.01 µM
  increase in dead-cell fraction: -0.0017
Flavopiridol [6]; 0.03162 µM
  increase in dead-cell fraction: 0.003
Flavopiridol [6]; 0.1 µM
  increase in dead-cell fraction: 0.0067
Flavopiridol [6]; 0.3162 µM
  increase in dead-cell fraction: 0.0397
Flavopiridol [6]; 1 µM
  increase in dead-cell fraction: 0.274
YKL-5-124; 0.001 µM
  increase in dead-cell fraction: 0.0145
YKL-5-124; 0.003162 µM
  increase in dead-cell fraction: 0.0218
YKL-5-124; 0.01 µM
  increase in dead-cell fraction: 0.019
YKL-5-124; 0.03162 µM
  increase in dead-cell fraction: 0.0189
YKL-5-124; 0.1 µM
  increase in dead-cell fraction: 0.0303
YKL-5-124; 0.3162 µM
  increase in dead-cell fraction: 0.0351
YKL-5-124; 1 µM
  increase in dead-cell fraction: 0.0209
YKL-5-124; 3.162 µM
  increase in dead-cell fraction: 0.0235
YKL-5-124; 10 µM
  increase in dead-cell fraction: 0.182
LEE011/Ribociclib; 0.001 µM
  increase in dead-cell fraction: 0.0109
LEE011/Ribociclib; 0.003162 µM
  increase in dead-cell fraction: 0.0057
LEE011/Ribociclib; 0.01 µM
  increase in dead-cell fraction: 0.0072
LEE011/Ribociclib; 0.03162 µM
  increase in dead-cell fraction: 0.0158
LEE011/Ribociclib; 0.1 µM
  increase in dead-cell fraction: 0.0086
LEE011/Ribociclib; 0.3162 µM
  increase in dead-cell fraction: 0.0122
LEE011/Ribociclib; 1 µM
  increase in dead-cell fraction: 0.0254
LEE011/Ribociclib; 3.162 µM
  increase in dead-cell fraction: 0.0157
LEE011/Ribociclib; 10 µM
  increase in dead-cell fraction: 0.0109
Neratinib/HKI272 [7]; 0.0003162 µM
  increase in dead-cell fraction: 0.0014
Neratinib/HKI272 [7]; 0.001 µM
  increase in dead-cell fraction: 0.0075
Neratinib/HKI272 [7]; 0.003162 µM
  increase in dead-cell fraction: 0.0456
Neratinib/HKI272 [7]; 0.01 µM
  increase in dead-cell fraction: 0.235
Neratinib/HKI272 [7]; 0.03162 µM
  increase in dead-cell fraction: 0.359
Neratinib/HKI272 [7]; 0.1 µM
  increase in dead-cell fraction: 0.369
Neratinib/HKI272 [7]; 0.3162 µM
  increase in dead-cell fraction: 0.38
Neratinib/HKI272 [7]; 1 µM
  increase in dead-cell fraction: 0.438
Neratinib/HKI272 [7]; 3.162 µM
  increase in dead-cell fraction: 0.471
THZ531; 0.0001 µM
  increase in dead-cell fraction: -0.0031
THZ531; 0.0003162 µM
  increase in dead-cell fraction: 0.0048
THZ531; 0.001 µM
  increase in dead-cell fraction: 0.003
THZ531; 0.003162 µM
  increase in dead-cell fraction: -0.0009
THZ531; 0.01 µM
  increase in dead-cell fraction: -0.0036
THZ531; 0.03162 µM
  increase in dead-cell fraction: 0.0037
THZ531; 0.1 µM
  increase in dead-cell fraction: 0.17
THZ531; 0.3162 µM
  increase in dead-cell fraction: 0.413
THZ531; 1 µM
  increase in dead-cell fraction: 0.229
THZ1; 0.0001 µM
  increase in dead-cell fraction: -0.0007
THZ1; 0.0003162 µM
  increase in dead-cell fraction: -0.0012
THZ1; 0.001 µM
  increase in dead-cell fraction: -0.0015
THZ1; 0.003162 µM
  increase in dead-cell fraction: -0.0036
THZ1; 0.01 µM
  increase in dead-cell fraction: 0.0152
THZ1; 0.03162 µM
  increase in dead-cell fraction: 0.0225
THZ1; 0.1 µM
  increase in dead-cell fraction: 0.175
THZ1; 0.3162 µM
  increase in dead-cell fraction: 0.221
THZ1; 1 µM
  increase in dead-cell fraction: 0.139
BSJ-03-123; 0.001 µM
  increase in dead-cell fraction: 0.0078
BSJ-03-123; 0.003162 µM
  increase in dead-cell fraction: 0.0052
BSJ-03-123; 0.01 µM
  increase in dead-cell fraction: 0.0155
BSJ-03-123; 0.03162 µM
  increase in dead-cell fraction: 0.004
BSJ-03-123; 0.1 µM
  increase in dead-cell fraction: 0.0074
BSJ-03-123; 0.3162 µM
  increase in dead-cell fraction: 0.0224
BSJ-03-123; 1 µM
  increase in dead-cell fraction: 0.0243
BSJ-03-123; 3.162 µM
  increase in dead-cell fraction: 0.0241
BSJ-03-123; 10 µM
  increase in dead-cell fraction: 0.0415
